These results are taken from patent publication US20150056310A1, “COSMETIC METHOD FOR INCREASING COLLAGEN EXPRESSION IN SKIN COMPRISING TOPICALLY APPLYING AN EXTRACT OF QUASSIA AMARA” (BASF Beauty Care Solutions France S.A.S., priority 2013, published 2015).

For this assay, the system named is type I collagen protein expression in dermal fibroblast cells. Briefly: Increase in type I collagen protein expression in dermal fibroblast cells cultured in vitro (immunolabelling, confocal microscopy, image analysis). Format: cell-based, human. As to conditions: 3 days, dermal fibroblasts, ratio relative to nontreated cells (NT = 1), mean of 4 assays. Here is the method: A Q. amara wood extract at 5% (w/w) obtained according to Example 1a) was tested on dermal fibroblast cells cultured in vitro. The extract was tested at final concentrations of 0.01% and 0.05% by volume in the culture medium. Preferentially, the final concentration was 0.01% (v/v).
Specifically, dermal fibroblasts from the abdomen of a donor were seeded into a culture chamber (8-well) and amplified in FGM (Fibroblast Growth Media) culture medium containing an antibiotic, normocin, for 3 or 4 days until confluence, the cell stage for which 100% of the cultured cells adhere to one another, forming a uniform cell layer.
The confluent cells were then treated in this same culture medium for 3 days with a Q. amara wood extract at a final concentration in the culture medium of 0.01% or 0.05% (v/v) (Table 1). Other control active ingredients were tested (Table 1): vitamin C (50 μg/ml) or retinaldehyde (1 μM) or TGFβ1 (1 ng/ml) (Transforming Growth Factor β1).
The culture media (FGM) containing the dermal fibroblast cells treated with an active agent, or the nontreated culture media, contained moreover 5 μg/ml of vitamin C, enabling the newly synthesized collagen to be secreted out of the cell.
After 3 days of incubation, the cells were rinsed with a phosphate buffered saline (PBS) buffer containing calcium, magnesium and antibiotics, and then fixed in cold methanol for 10 minutes with a view to performing immunolabelling.
An anti-type I collagen antibody was added to the medium with a view to performing immunolabelling.
The increase in type I collagen protein expression was observed by confocal microscopy (LSM 700, Zeiss, LePecq, France) and quantified by image analysis (FIG. 1).
The type I collagen protein expression was calculated as a ratio relative to a theoretical expression equal to 1 in the case of nontreated fibroblast cells (NT). The mean protein expression was obtained through the mean of 4 distinct assays (Table 1).

In the case of “TGFβ: Transforming Growth Factor β1, control active ingredient”, the “Mean increase in type I collagen protein expression” value (from here on “Mean increase”) (1 ng/ml) is given as 1.42.

On to `O=C1O[C@H]([C@@H](O)CO)C(O)=C1O` [Vitamin C, vitamin C], for which, for the setting “50 μg/ml”, the “Mean increase” value turned out to be 2.31.

As to `CC1=C(/C=C/C(C)=C/C=C/C(C)=C/C=O)C(C)(C)CCC1` [Retinaldehyde, retinaldehyde], the “Mean increase” value (1 μM) came out at 2.06.
